Where a name gives a salt, the structure may show the parent alone.
Experiment: Angle of repose α as a measure of flowability and pourability
Assay type: physicochemical
Conditions: determined according to R. Voigt, Lehrbuch der pharmazeutischen Technologie, 3rd Edition 1979, p. 165
Source text: The angle of repose α of the modifications as a measure of the flowability and pourability is likewise different: [table]

| Angle of Repose α [°] | SMILES |
| --- | --- |
| 34 | O=C(O)CCCC[C@@H]1CCSS1 [Modification mixture A/B = 1:1, trometamol salt of R-thioctic acid] |
| 46 | O=C(O)CCCC[C@@H]1CCSS1 [Modification A, trometamol salt of R-thioctic acid] |
| 32 | O=C(O)CCCC[C@@H]1CCSS1 [Modification B, trometamol salt of R-thioctic acid] |
